Data: publication PMC7024391, “Trypanocidal Activity of Flavanone Derivatives” (Molecules, 2020)
Like-named read-outs stand apart in the source and are kept apart here.

Experiments:
L929 cells = experiment: In vitro cytotoxic test on uninfected L-929 cells (alamarBlue); type: cell-based, mouse; details: CC50 L929 / IC50 T. cruzi
Method: (§1) The active compounds were tested in vitro for determination of cellular toxicity against uninfected L-929 cells using the alamarBlue® dye. The cells were exposed to compounds at increasing concentrations starting at IC50 value for T. cruzi. After 96 h of incubation with the tested compounds, the alamarBlue® was added and the absorbance at 570 and 600 nm measured after 4–6 h. The cell viability was expressed as the percentage of difference in the reduction between treated and untreated cells. IC50 values were calculated by linear interpolation, and the selectivity index (SI) was determined based on the ratio of the IC50 value in the host cell divided by the IC50 value of the parasite. Quadruplicates were run in the same plate, and the experiments were repeated at least once.

[1] = as above; type: cell-based, mouse; details: mouse, uninfected L-929 cells; mammalian L929 cells, 96 h, alamarBlue; ± 2.0; read-out: Cytotoxicity CC50(μM) ± 2.0
Method: as §1

[2] = system: Trypanosoma cruzi (amastigotes and trypomastigotes), Tulahuen strain; experiment: Anti-Trypanosoma cruzi activity assay (amastigotes and trypomastigotes) in infected L929 cells, beta-galactosidase reporter; type: cell-based; details: Trypanosoma cruzi, 96 h incubation, ± 0.2, read-out: Trypanocide IC50(μM) ± 0.2
Method: Flavanone derivatives were evaluated for anti-T. cruzi activity against the intracellular forms of the parasite. Although the use of epimastigotes present in the midgut vector may be utilized for initial screening, we have instead opted for the simultaneous use of trypomastigote and intracellular amastigotes forms that are present during both acute and chronic phases of the disease. This approach is in accordance with the Drugs for Neglected Diseases Initiative guidelines (DNDi). Moreover, it also has the advantage of evaluating bioactive compounds in infected cells while at the same time monitoring their effects on both the relevant forms of the parasite in the same system. Benznidazole was used as a positive control against T. cruzi and cytotoxicity was determined in mammalian L929 cells (Table 1). The bioavailability profile of the flavanones was evaluated by applying the Lipinski rule and data related to the risk of toxicity (mutagenicity, tumorigenicity, irritability, and effects on the reproductive system) carried out through online programs “Molinspiration” and “OSIRIS property explorer” (Table 1). […] Nevertheless, this preliminary result motivated us to investigate other analogs bearing substituents in order to improve potency and selectivity. […] Moreover, the selectivity of 2d was almost 4 times greater than 2a. The importance of methoxy substituents for trypanocidal activity has been noted in other studies. […] These compounds resembled more closely the chemical structure of the trypanocidal natural product (brevifolin carboxylate) that these structures were based on. Some enhancement in the trypanocidal activity of hybrid coumarin-chalcone compounds was also noted when the methoxy groups were introduced into either the 2 or 5 positions of the benzene ring. The inclusion of a pyridine moiety in compound 2e was supported by previous reports describing the anti-T. cruzi activity of 2-pyridyl derivatives and their capacity to inhibit cruzain catalytic activity. […] No improvements in anti-T. cruzi activity were also observed for flavanones substituted at the benzoyl moiety (2g–2o and 2v–2x). […] The physicochemical drug descriptors of the molecular properties for the synthesized compounds were calculated by Molinspiration software (Table 1). The majority of the tested compounds satisfy the Lipinski rule with no violations and therefore displaying potentially good bioavailability. There were no linear correlations observed between molecular hydrophobicity and bioactivity.
The in vitro anti-T. cruzi activity was evaluated on L929 cells (mouse fibroblasts) infected with Tulahuen strain of the parasite expressing the Escherichia coli β-galactosidase as reporter gene. Briefly, for the bioassay, 4000 L929 cells were added to each well of a 96-well microtiter plate. After an overnight incubation, 40,000 trypomastigotes were added to the cells and incubated for 2 h. Then, the medium containing extracellular parasites were replaced with 200 μL of fresh medium and the plate was incubated for an additional 48 h to establish the infection. For IC50 determination, the cells were exposed to each synthesized compound at serial decreasing dilutions and the plate was incubated for 96 h. After this period, 50 μL of 500 μM chlorophenol red beta-D-galactopyranoside (CPRG) in 0.5% Nonidet P40 was added to each well, and the plate was incubated for 16–20 h, after which the absorbance at 570 nm was measured. Controls with uninfected cells, untreated infected cells, infected cells treated with Benznidazole at 3.8 μM (positive control) or DMSO 1% were used. The results were expressed as the percentage of T. cruzi growth inhibition in compound-tested cells as compared to the infected cells and untreated cells. The IC50 values were calculated by linear interpolation. Quadruplicates were run in the same plate, and the experiments were repeated at least once.

[3] = system: trypomastigote form of T. cruzi; parameters: method as in Ambrozin et al.; details: ref Ambrozin et al.; cited from earlier work
[4] = system: T. cruzi (Trypomastigote); parameters: method as in Grecco et al. [9],[10],[11],[12]; details: ref Grecco et al. [9],[10],[11],[12]; cited from earlier work
[5] = system: T. cruzi (Trypomastigote); parameters: method as in Ganapaty et al. [8]; details: ref Ganapaty et al. [8]; cited from earlier work

Structure (SMILES) | SI (selectivity index calculated from CC50/IC50) (L929 cells) | CC50 at 96 h [1] [µM] | IC50 [2] [µM] | IC50 [3] [µM] | IC50 [4] [µM] | IC50 [5] [µM]
COc1ccc(C(=O)[C@@H]2C(=O)c3ccccc3O[C@H]2c2ccccc2Cl)cc1 (relative stereo) [Compound 2o, trans-2-(2-chlorophenyl)-3-(4-methoxybenzoyl)chroman-4-one] | 15.4 | 408 | 26.5 |  |  | 
COc1ccc2c(=O)cc(-c3ccccc3)oc2c1 [7-Methoxyflavone] |  |  |  | 3120 |  | 
COc1ccc([C@@H]2Oc3ccccc3C(=O)[C@H]2C(=O)c2ccc(C)cc2)cc1 (relative stereo) [Compound 2i, trans-2-(4-methoxyphenyl)-3-(4-methylbenzoyl)chroman-4-one] | 4.3 | 107 | 25 |  |  | 
COc1ccc(C(=O)[C@@H]2C(=O)c3ccccc3O[C@H]2c2ccccc2)cc1 (relative stereo) [Compound 2l, trans-3-(4-methoxybenzoyl)-2-phenylchroman-4-one] | 1 | 223 | 223 |  |  | 
COc1c(O)cc2oc(-c3ccc(O)cc3)cc(=O)c2c1O [Hispidulin] |  |  |  |  | 268 | 
COc1ccc([C@@H]2Oc3ccc(Cl)cc3C(=O)[C@H]2C(=O)c2ccccc2)cc1 (relative stereo) [Compound 2u, trans-3-benzoyl-6-chloro-2-(4-methoxyphenyl)chroman-4-one] | 3.5 | 205 | 59.2 |  |  | 
COc1ccc(-c2cc(=O)c3c(O)c(OC)c(O)cc3o2)cc1 [Pectolinaringenin] |  |  |  |  | 164 | 
COc1ccc(C(=O)[C@@H]2C(=O)c3ccccc3O[C@H]2c2ccc(OC)cc2)cc1 (relative stereo) [Compound 2m, trans-3-(4-methoxybenzoyl)-2-(4-methoxyphenyl)chroman-4-one] | 2.8 | 103 | 37.4 |  |  | 
O=C(c1ccccc1)[C@@H]1C(=O)c2ccccc2O[C@H]1c1ccccn1 (relative stereo) [Compound 2e, trans-3-benzoyl-2-(pyridin-2-yl)chroman-4-one] | 1.3 | 243 | 184 |  |  | 
COc1ccc2c(c1)C(=O)[C@@H](C(=O)c1ccccc1)[C@H](c1ccc(F)cc1)O2 (relative stereo) [Compound 2r, trans-3-benzoyl-2-(4-fluorophenyl)-6-methoxychroman-4-one] | 6.1 | 106 | 17.6 |  |  | 
O=c1cc(-c2ccccc2)oc2ccccc12 [Flavone] |  |  |  | 9520 |  | 
COc1cc(O)c2c(c1)O[C@H](c1ccc(O)cc1)CC2=O [Sakuranetin] |  |  |  |  | 70.5 | 
O=C(c1ccccc1)[C@@H]1C(=O)c2ccccc2O[C@H]1c1ccccc1Cl (relative stereo) [Compound 2b, trans-3-benzoyl-2-(2-chlorophenyl)chroman-4-one] | 40.3 | 442 | 10.7 |  |  | 
COc1cc2c(cc1O)OC[C@H](c1cc3c(cc1O)OCO3)[C@H]2O [Pumilanol] |  |  |  |  |  | 10.1
c1ccc(-c2n[nH]c3c2C(c2ccccc2)Oc2ccccc2-3)cc1 (stereo not drawn) [Compound 5, 3,4-diphenyl-1,4-dihydrochromeno[4,3-c]pyrazole] | 4.6 | 38.6 | 8.3 |  |  | 
Cc1ccc(C(=O)[C@@H]2C(=O)c3ccccc3O[C@H]2c2ccc(F)cc2)cc1 (relative stereo) [Compound 2h, trans-2-(4-fluorophenyl)-3-(4-methylbenzoyl)chroman-4-one] | 4.9 | 111 | 22.5 |  |  | 
O=C(c1ccccc1)[C@@H]1C(=O)c2cc(Cl)ccc2O[C@H]1c1ccccc1 (relative stereo) [Compound 2t, trans-3-benzoyl-6-chloro-2-phenylchroman-4-one] | 9.5 | 221 | 23.2 |  |  | 
O=C(c1ccccc1)[C@@H]1C(=O)c2ccccc2O[C@H]1c1ccc(F)cc1 (relative stereo) [Compound 2c, trans-3-benzoyl-2-(4-fluorophenyl)chroman-4-one] | 10.5 | 231 | 21.9 |  |  | 
COc1ccc2c(c1)C(=O)[C@@H](C(=O)c1ccccc1)[C@H](c1ccccc1Cl)O2 (relative stereo) [Compound 2s, trans-3-benzoyl-2-(2-chlorophenyl)-6-methoxychroman-4-one] | 5.5 | 102 | 18.4 |  |  | 
O=C(c1ccccc1)[C@@H]1C(=O)c2ccccc2O[C@H]1c1ccc(OCc2ccccc2)cc1 (relative stereo) [Compound 2f, trans-3-benzoyl-2-(4-(benzyloxy)phenyl)chroman-4-one] | 12.1 | 92.1 | 7.6 |  |  | 
O=C(c1ccccc1)[C@@H]1C(=O)c2ccccc2O[C@H]1c1ccc([N+](=O)[O-])o1 (relative stereo) [Compound 2z, trans-3-benzoyl-2-(5-nitrofuran-2-yl)chroman-4-one] | 10.6 | 27.5 | 2.6 |  |  | 
